# Patent US9006442B2, “Cannabinoid receptor modulators” (Lupin Limited, priority 2011, dated 2015)
# Like-named read-outs stand apart in the source and are kept apart here.
# How the values were obtained:
# [1] = target: hCB2 (Homo sapiens, UniProt P34972); assay: cAMP determination in functional hCB2-CHO stable cells (HTRF); format: cell-based
# Experimental: In-Vitro Assay Method for Determination of cAMP in Functional hCB2—CHO Stable Cells:
# Recombinant CHO-hCB2 cells (procured from Perkin Elmer Inc. USA) were propagated and maintained in Ham's F-12 complete medium containing 10% heat inactivated FBS (Sigma.UK) and 1× penstrep. For assay, 0.1×10^6 to 1.0×10^6 CHO-hCB2 cells were seeded in T-25 flask and grown to mid-log phase in culture media without antibiotics for 2-3 days. […] The test is performed in 96^1/2 area black well plates. For agonist testing, 20 μl cells/well were mixed with 20 μl of sample and 10 μl of forskolin (with final concentration of 10 μM) and incubated for 20 to 40 min at room temperature in incubator. The plate was then processed for the cAMP determination using cAMP Femto-2 HTRF kit (Cisbio, Germany) as per the manual.
# The concentration of compound required to stimulate a half-maximal response (EC50) was determined using the GraphPad Prism software (version 5).
# [2] = target: T1, human CB1 (Homo sapiens, UniProt P21554); assay: cAMP determination in functional hCB1-HEK stable cells (HTRF); format: cell-based
# T1 construct: expressed in transfected cells
# Experimental: In-Vitro Assay Method for Determination of cAMP in Functional hCB1—HEK Stable Cells:
# U.S.A), 400 μg/ml of G418 and lx penstrep. For assay, 0.6-1.0×10^6 hCB1-HEK cells were seeded in T-25 flask and grown to mid-log phase in complete culture medium as mentioned above for 2-3 days. One day prior to assay, cell monolayer was washed once with PBS (pH.7.4) and then serum starved for overnight in DMEM medium containing 0.2% bovine serum albumin (devoid of antibiotics, FBS and penstrep). […] The test is performed in 96^1/2 area black well plates. For agonist testing, 20 μl cells/well were mixed with 20 μl of compound and 10 μl of forskolin (with final concentration of 10 μM) and incubated for 40 min at 25° C. incubator. The plates were then processed for cAMP determination using cAMP Femto-2 HTRF kit (Cisbio, Germany) as per the kit manual.
# [3] = test system: rats; assay: FCA (Freund's Complete Adjuvant)-induced inflammatory hyperalgesia, paw withdrawal threshold, Dynamic plantar aesthesiometer; format: in vivo; conditions: mechanical hyperalgesia 3 days post-FCA
# Experimental: FCA (Freund's Complete Adjuvant)—Induced Inflammatory Hyperalgesia:
# Freund's Complete Adjuvant (FCA), containing heat killed Mycobacterium tuberculosis (2 mg/ml) in incomplete Freund's adjuvant, injected (50 μl) into the plantar region of the paw of rats induces an inflammatory pain. Mechanical hyperalgesia (3 days post-FCA) was assessed by measuring hind paw withdrawal thresholds with Dynamic planter aesthesiometer.
# [4] = test system: rats; assay: FCA-induced inflammatory allodynia, paw withdrawal threshold, von Frey filaments; format: in vivo; conditions: mechanical allodynia 7 days after FCA injection, dose 10 mg/kg
# Experimental: FCA (Freund's Complete Adjuvant)—Induced Inflammatory Allodynia:
# An emulsion of Freund's Complete Adjuvant (FCA), containing heat killed Mycobacterium tuberculosis (4 mg/ml) in incomplete Freund's adjuvant and saline (1:1) at a final concentration of 2 mg/ml, when injected (150 μl) into the plantar region of the paw of rats induces an inflammatory pain. Mechanical allodynia (7 days after injection) was assessed by measuring hind paw withdrawal thresholds with von Frey filaments. The 50% paw withdrawal threshold was determined using up and down method of Dixon and as per the Chaplan method.
# [5] = test system: rats; assay: Chronic constriction injury (CCI)-induced neuropathic pain (Bennett's model), mechanical allodynia, von Frey filaments; format: in vivo; conditions: CCI of sciatic nerve, mechanical allodynia after 10-15 days, dose 10 mg/kg
# Experimental: Chronic Constriction Injury (CCI)—Induced Neuropathic Pain (Bennett's Model):
# Chronic constriction injury (CCI) of sciatic nerve in rats induces mechanical allodynia in this Bennet's neuropathic pain model. Rats were anesthetized using ketamine/xylazine (50/5 mg/kg, i.p.) and the left sciatic nerve was exposed at mid thigh level through a small incision. Four loose ligatures of 4-0 chromic cat gut (Ethicon—Johnson & Johnson) at 1 mm space were placed around the sciatic nerve after the bifurcation of common sciatic nerve. After 10-15 days, mechanical allodynia was assessed by measuring hind paw withdrawal thresholds with von Frey filaments. The 50% paw withdrawal threshold was determined using up and down method of Dixon and as per the Chaplan method.
# [6] = CHO-hCB2 cells, cAMP, forskolin 10 μM, agonist testing, read-out: EC50 Range
# Chain of hCB2 (P34972 whole entry): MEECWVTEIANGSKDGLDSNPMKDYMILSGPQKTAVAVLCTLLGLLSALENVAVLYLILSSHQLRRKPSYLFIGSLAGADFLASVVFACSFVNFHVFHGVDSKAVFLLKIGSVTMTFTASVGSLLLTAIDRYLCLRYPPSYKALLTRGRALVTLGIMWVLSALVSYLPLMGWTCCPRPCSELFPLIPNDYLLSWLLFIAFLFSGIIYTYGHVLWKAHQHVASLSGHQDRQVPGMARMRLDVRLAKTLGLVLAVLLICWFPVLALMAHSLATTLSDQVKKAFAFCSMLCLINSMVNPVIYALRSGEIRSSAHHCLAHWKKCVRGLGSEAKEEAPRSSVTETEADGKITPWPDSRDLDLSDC
# T1 sequence (P21554 whole entry): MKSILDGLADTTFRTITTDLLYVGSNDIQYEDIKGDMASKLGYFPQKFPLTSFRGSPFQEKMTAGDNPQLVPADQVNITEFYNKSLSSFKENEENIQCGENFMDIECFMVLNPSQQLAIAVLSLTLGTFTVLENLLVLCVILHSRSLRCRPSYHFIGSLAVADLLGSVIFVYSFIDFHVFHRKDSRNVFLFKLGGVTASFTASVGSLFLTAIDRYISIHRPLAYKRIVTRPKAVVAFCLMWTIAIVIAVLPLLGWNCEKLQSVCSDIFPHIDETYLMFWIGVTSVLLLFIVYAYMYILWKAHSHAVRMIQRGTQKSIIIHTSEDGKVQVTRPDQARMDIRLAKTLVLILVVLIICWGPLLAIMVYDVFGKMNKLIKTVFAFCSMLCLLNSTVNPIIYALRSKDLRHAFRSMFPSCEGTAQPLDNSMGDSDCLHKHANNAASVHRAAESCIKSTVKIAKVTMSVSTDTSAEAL
smiles,measurement,setting,value
"Cc1cccc2c(Nc3cccc(Cl)c3)ncc(C(=O)N3CCOCC3)c12 [Example-1, (1-((3-Chlorophenyl)amino)-5-methylisoquinolin-4-yl)(morpholino)methanone]",EC50,[1],< 10 nM
same,EC50,[2],> 100 nM
"Cc1cccc2c(Nc3cccc(C(F)(F)F)c3)ncc(C(=O)N3CCOCC3)c12 [Example-4, (5-Methyl-1-((3-(trifluoromethyl)phenyl)amino)isoquinolin-4-yl)(morpholino)methanone]",EC50,[1],< 10 nM
same,"% Improvement (MEAN ± S.E.M.) in Paw withdrawal Threshold, 1 h",[3]; dose 10 mg/kg,60.9 ± 12 %
same,"% Improvement (MEAN ± S.E.M.) in Paw withdrawal Threshold, 2 h",[3]; dose 10 mg/kg,42.9 ± 8.7 %
same,"% Improvement (MEAN ± S.E.M.) in Paw withdrawal Threshold, 4 h",[3]; dose 10 mg/kg,43.9 ± 17.4 %
"Cc1cccc2c(Nc3cccc(C(F)F)c3)ncc(C(=O)N3CCOCC3)c12 [Example-13, (1-(((3-Difluoromethyl)phenyl)amino)-5-methylisoquinolin-4-yl)(morpholino)methanone]",EC50,[1],< 10 nM
same,EC50,[2],< 100 nM
"Cc1cccc2c(Nc3cccc(Cl)c3)ncc(C(=O)N3CCCCC3)c12 [Example-22, (1-((3-Chlorophenyl)amino)-5-methylisoquinolin-4-yl)(piperidin-1-yl)methanone]",EC50,[1],< 10 nM
same,"% Improvement (MEAN ± S.E.M.) in Paw withdrawal Threshold, 1 h",[4],17.7 ± 7.1%
same,"% Improvement (MEAN ± S.E.M.) in Paw withdrawal Threshold, 2 h",[4],30.7 ± 8.8 %
same,"% Improvement (MEAN ± S.E.M.) in Paw withdrawal Threshold, 1 h",[5],61.8 ± 10.1 %
same,"% Improvement (MEAN ± S.E.M.) in Paw withdrawal Threshold, 2 h",[5],70.2 ± 9.5 %
"Cc1cccc2c(Nc3cccc(Cl)c3)ncc(C(=O)N3CC4CC(C3)O4)c12 [Example-39, 6-Oxa-3-azabicyclo[3.1.1]heptan-3-yl(1-((3-chlorophenyl)amino)-5-methylisoquinolin-4-yl)methanone]",EC50,[1],< 10 nM
same,"% Improvement (MEAN ± S.E.M.) in Paw withdrawal Threshold, 1 h",[4],2.10 ± 1.87%
same,"% Improvement (MEAN ± S.E.M.) in Paw withdrawal Threshold, 2 h",[4],10.22 ± 4.68%
same,"% Improvement (MEAN ± S.E.M.) in Paw withdrawal Threshold, 1 h",[5],11.6 ± 12.8%
same,"% Improvement (MEAN ± S.E.M.) in Paw withdrawal Threshold, 2 h",[5],0.7 ± 1.1%
"Cc1cccc2c(Nc3cccc(C(F)(F)F)c3)ncc(C(=O)N3CC4CC(C3)O4)c12 [Example-40, 6-Oxa-3-azabicyclo[3.1.1]heptan-3-yl(5-methyl-1-((3-(trifluoromethyl)phenyl)amino)isoquinolin-4-yl)methanone]",EC50,[1],< 10 nM
same,"% Improvement (MEAN ± S.E.M.) in Paw withdrawal Threshold, 1 h",[4],12.8 ± 4.6%
same,"% Improvement (MEAN ± S.E.M.) in Paw withdrawal Threshold, 2 h",[4],13.8 ± 4.5%
same,"% Improvement (MEAN ± S.E.M.) in Paw withdrawal Threshold, 1 h",[5],21.6 ± 10.6%
same,"% Improvement (MEAN ± S.E.M.) in Paw withdrawal Threshold, 2 h",[5],11.2 ± 2.9%
"Cc1cccc2c(Oc3ccc(F)cc3Cl)ncc(C(=O)N3CCOCC3)c12 [Example-56, (1-(2-Chloro-4-fluorophenoxy)-5-methylisoquinolin-4-yl)(morpholino)methanone]",EC50,[2],> 100 nM
Cc1cccc2c(Nc3cccc(C(F)(F)F)c3)ccc(C(=O)N3CCOCC3)c12 [Example-134],EC50,[1],< 10 nM
same,"% Improvement (MEAN ± S.E.M.) in Paw withdrawal Threshold, 1 h",[3]; dose 10 mg/kg,6.8 ± 8.8%
same,"% Improvement (MEAN ± S.E.M.) in Paw withdrawal Threshold, 2 h",[3]; dose 10 mg/kg,25.8 ± 5.2%
same,"% Improvement (MEAN ± S.E.M.) in Paw withdrawal Threshold, 4 h",[3]; dose 10 mg/kg,−1.6 ± 8.0%
Cc1cccc2c(Nc3cccc(C(F)(F)F)c3)ccc(C(=O)N3CCCCC3)c12 [Example-143],EC50,[1],< 10 nM
same,"% Improvement (MEAN ± S.E.M.) in Paw withdrawal Threshold, 1 h",[3]; dose 10 mg/kg,16.7 ± 15.0%
same,"% Improvement (MEAN ± S.E.M.) in Paw withdrawal Threshold, 2 h",[3]; dose 10 mg/kg,25.1 ± 17.8%
same,"% Improvement (MEAN ± S.E.M.) in Paw withdrawal Threshold, 4 h",[3]; dose 10 mg/kg,18.3 ± 18.5%
"Cc1c(Cl)cccc1Nc1ccc(C(=O)N2CCOCC2)c2c(C)cccc12 [Example-155, (4-((3-Chloro-2-methylphenyl)amino)-8-methylnaphthalen-1-yl)(morpholino)methanone]",EC50,[1],< 10 nM
same,EC50,[2],< 100 nM
"O=C(c1ccc(Nc2cccc(Cl)c2)c2ccccc12)N1CCOCC1 [Example-179, (4-((3-Chlorophenyl)amino)naphthalen-1-yl)(morpholino)methanone]",EC50,[1],< 10 nM
same,EC50,[2],> 100 nM
"O=C(c1ccc(Nc2cccc(F)c2)c2ccccc12)N1CCOCC1 [Example-183, (4-((3-Fluorophenyl)amino)naphthalen-1-yl)(morpholino)methanone]",EC50,[1],10 to 1000 nM
same,EC50,[2],> 100 nM
"O=C(c1cnc(Nc2cccc(Cl)c2)c2cccc(Cl)c12)N1CCCCC1 [Example-218, (5-Chloro-1-((3-chlorophenyl)amino)isoquinolin-4-yl)(piperidin-1-yl)methanone]",EC50,[2],< 100 nM
"Cc1cccc2c(Nc3cc(F)cc(F)c3)ncc(CN3CCOCC3)c12 [Example-225, N-(3,5-difluorophenyI)-5-methyl-4-(morpholinomethyl)isoquinolin-1-amine]",EC50,[2],< 100 nM
"Cc1cccc2c(Nc3cccc(Cl)c3)ncc(C(=O)N3CCC(F)(F)CC3)c12 [Example-241, (1-((3-Chlorophenyl)amino)-5-methylisoquinolin-4-yl)(4,4-difluoropiperidin-1-yl)methanone]",EC50,[2],< 100 nM
"Cc1cccc2c(Nc3cccc(C(F)(F)F)c3F)ncc(C(=O)N(C)C)c12 [Example-257, 1-((2-Fluoro-3-(trifluoromethyl)phenyl)amino)-N,N,5-trimethyl isoquinolin-4-carboxamide]",EC50,[1]; [6],< 10 nM
same,"% Improvement (MEAN ± S.E.M.) in Paw withdrawal Threshold, 1 h",[3]; dose 30 mg/kg,44.4 ± 23.3%
same,"% Improvement (MEAN ± S.E.M.) in Paw withdrawal Threshold, 2 h",[3]; dose 30 mg/kg,52.8 ± 19.1%
"CCN(C)C(=O)c1ccc(Nc2cccc(C)c2C)c2cccc(C)c12 [compound 453, 4-((2,3-Dimethylphenyl)amino)-N-ethyl-N,8-dimethyl-1-naphthamide]",EC50,[1]; [6],< 10 nM
"CCN(C)C(=O)c1ccc(Nc2cccc(Cl)c2C)c2cccc(C)c12 [compound 456, 4-((3-Chloro-2-methylphenyl)amino)-N-ethyl-N,8-dimethyl-1-naphthamide]",EC50,[1]; [6],< 10 nM
